In article PMC10044120, “Potent and selective covalent inhibition of the papain-like protease from SARS-CoV-2” (Nature Communications, 2023):
Like-named read-outs stand apart in the source and are kept apart here.

What was measured:
USP7 = target: T1, USP7 (Homo sapiens, UniProt Q93009); assay: biochemical; conditions: USP7 5 nM, Ub-CHOP2
T1 construct: purchased LifeSensors, Inc. (Malvern, PA)

[1] = test system: viral replication in Vero E6 cells; conditions: viral replication in Vero E6 cells; cited from earlier work
USP8 = target: T2, USP8 (Homo sapiens, UniProt P40818); assay: biochemical; conditions: USP8 10 nM, Ub-rhodamine110
T2 construct: USP2c, USP4, USP7, USP8c, USP15, USP30WT, and UCH-L1; purchased LifeSensors, Inc. (Malvern, PA)

USP4 = target: T3, USP4 (Homo sapiens, UniProt Q13107); assay: DUB selectivity assay, USP4 (Ub-rhodamine110); format: biochemical; conditions: USP4 10 nM, Ub-rhodamine110; read-out: IC50
T3 construct: purchased LifeSensors, Inc. (Malvern, PA)
T3 sequence (Q13107 1-963): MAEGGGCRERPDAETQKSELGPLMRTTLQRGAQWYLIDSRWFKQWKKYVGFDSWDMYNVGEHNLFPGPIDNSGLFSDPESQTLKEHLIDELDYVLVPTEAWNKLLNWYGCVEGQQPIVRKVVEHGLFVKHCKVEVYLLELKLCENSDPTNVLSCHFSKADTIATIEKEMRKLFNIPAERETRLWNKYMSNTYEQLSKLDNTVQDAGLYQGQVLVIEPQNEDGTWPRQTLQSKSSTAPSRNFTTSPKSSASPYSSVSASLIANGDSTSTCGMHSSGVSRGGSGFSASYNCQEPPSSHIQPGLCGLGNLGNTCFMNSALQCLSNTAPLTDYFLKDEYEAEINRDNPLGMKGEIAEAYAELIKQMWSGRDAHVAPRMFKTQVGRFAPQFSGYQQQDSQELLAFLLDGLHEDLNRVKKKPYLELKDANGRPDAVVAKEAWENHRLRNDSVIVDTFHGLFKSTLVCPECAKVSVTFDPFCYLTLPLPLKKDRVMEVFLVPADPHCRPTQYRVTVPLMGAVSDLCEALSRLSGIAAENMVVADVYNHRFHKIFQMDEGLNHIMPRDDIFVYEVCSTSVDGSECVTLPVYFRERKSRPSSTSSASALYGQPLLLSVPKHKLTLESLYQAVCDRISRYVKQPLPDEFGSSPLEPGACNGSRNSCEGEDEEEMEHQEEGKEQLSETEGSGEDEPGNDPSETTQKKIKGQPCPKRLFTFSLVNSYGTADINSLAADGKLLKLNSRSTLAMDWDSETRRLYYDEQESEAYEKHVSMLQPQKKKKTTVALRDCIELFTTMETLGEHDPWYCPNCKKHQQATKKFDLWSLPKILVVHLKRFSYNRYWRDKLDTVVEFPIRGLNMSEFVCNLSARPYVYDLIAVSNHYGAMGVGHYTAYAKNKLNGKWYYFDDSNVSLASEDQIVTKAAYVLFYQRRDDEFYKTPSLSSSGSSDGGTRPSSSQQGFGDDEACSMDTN

UCHL1 = target: T4, UCHL1 (Homo sapiens, UniProt P09936); assay: biochemical; conditions: UCHL1 10 nM, Ub-rhodamine110
T4 construct: purchased LifeSensors, Inc. (Malvern, PA)

USP30 = target: T5, USP30 (Homo sapiens, UniProt Q70CQ3); assay: biochemical; conditions: USP30 10 nM, Ub-rhodamine110
T5 construct: purchased LifeSensors, Inc. (Malvern, PA)

PLpro from SARS-CoV-2 = PLpro from SARS-CoV-2 (Severe acute respiratory syndrome coronavirus 2, UniProt P0DTD1); assay: biochemical; format: biochemical
SARS-CoV-2 PLpro [2] = target: T6, SARS-CoV-2 PLpro (Severe acute respiratory syndrome coronavirus 2, UniProt P0DTD1); assay: biochemical; conditions: PLpro 10 nM, ISG15-CHOP2
USP2 = target: T7, USP2 (Homo sapiens, UniProt O75604); assay: biochemical; conditions: USP2 10 nM, Ub-rhodamine110
T7 construct: USP2c, USP4, USP7, USP8c, USP15, USP30WT, and UCH-L1; purchased LifeSensors, Inc. (Malvern, PA)

[3] = test system: SARS-CoV-2 isolate USA-WA1/2020; conditions: read-out: cytopathic effect, % cell viability, duplicate wells
Vero E6 cells = conditions: African green monkey, 48 h
[4] = test system: SARS-CoV-2 isolate USA-WA1/2020; assay: microbe, parasite or virus in culture; conditions: duplicate wells
SARS-CoV PLpro = conditions: cited from earlier work
USP15 = target: T8, USP15 (Homo sapiens, UniProt Q9Y4E8); assay: DUB selectivity assay, USP15 (Ub-rhodamine110); format: biochemical; conditions: USP15 1 nM, Ub-rhodamine110; read-out: IC50
T8 construct: purchased LifeSensors, Inc. (Malvern, PA)
T8 sequence (Q9Y4E8 1-981): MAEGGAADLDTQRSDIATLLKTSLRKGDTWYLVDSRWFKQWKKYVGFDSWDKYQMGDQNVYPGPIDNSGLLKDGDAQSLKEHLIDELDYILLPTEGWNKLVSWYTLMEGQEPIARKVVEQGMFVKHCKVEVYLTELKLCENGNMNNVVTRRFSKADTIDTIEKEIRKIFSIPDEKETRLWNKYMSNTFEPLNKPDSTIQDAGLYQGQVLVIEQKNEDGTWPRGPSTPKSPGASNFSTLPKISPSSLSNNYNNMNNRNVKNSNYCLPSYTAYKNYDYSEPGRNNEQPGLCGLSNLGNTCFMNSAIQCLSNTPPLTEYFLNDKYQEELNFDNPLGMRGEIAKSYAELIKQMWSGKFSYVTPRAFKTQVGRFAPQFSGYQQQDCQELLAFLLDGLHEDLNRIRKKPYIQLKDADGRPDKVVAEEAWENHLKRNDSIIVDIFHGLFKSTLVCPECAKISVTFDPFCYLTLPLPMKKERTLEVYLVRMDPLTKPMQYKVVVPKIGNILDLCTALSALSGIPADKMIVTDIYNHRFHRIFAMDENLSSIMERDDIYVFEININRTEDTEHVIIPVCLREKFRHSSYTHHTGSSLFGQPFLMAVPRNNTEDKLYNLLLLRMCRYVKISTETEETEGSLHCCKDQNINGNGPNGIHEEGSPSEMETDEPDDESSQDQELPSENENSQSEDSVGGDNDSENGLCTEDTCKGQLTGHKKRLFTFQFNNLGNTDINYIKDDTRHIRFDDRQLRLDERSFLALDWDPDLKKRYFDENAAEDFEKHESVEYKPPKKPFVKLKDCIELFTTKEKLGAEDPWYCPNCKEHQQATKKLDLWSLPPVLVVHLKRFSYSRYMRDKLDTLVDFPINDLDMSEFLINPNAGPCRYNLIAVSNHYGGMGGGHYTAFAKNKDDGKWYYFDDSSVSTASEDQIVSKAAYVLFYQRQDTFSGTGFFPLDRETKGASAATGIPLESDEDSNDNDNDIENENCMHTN

in vitro = conditions: African green monkey, cytotoxicity, %cell viability
SARS-CoV-2 PLpro [5] = target: T6, SARS-CoV-2 PLpro; assay: biochemical; conditions: PLpro 50 nM, Ub-rhodamine110

T5 sequence (Q70CQ3 whole entry): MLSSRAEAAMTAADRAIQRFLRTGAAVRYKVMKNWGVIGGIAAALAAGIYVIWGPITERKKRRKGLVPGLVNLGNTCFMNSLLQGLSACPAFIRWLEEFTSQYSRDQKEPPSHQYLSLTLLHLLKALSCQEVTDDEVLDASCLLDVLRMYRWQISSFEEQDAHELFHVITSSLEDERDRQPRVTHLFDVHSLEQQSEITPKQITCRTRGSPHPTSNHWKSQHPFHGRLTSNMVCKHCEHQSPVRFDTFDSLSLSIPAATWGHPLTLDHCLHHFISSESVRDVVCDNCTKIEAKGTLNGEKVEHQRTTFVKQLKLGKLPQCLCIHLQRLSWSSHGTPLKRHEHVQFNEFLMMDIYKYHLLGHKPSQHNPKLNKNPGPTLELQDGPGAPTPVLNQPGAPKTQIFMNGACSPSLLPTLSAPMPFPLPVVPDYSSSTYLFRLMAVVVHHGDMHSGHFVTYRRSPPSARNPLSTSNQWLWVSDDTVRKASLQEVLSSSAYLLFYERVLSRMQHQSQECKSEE
T7 sequence (O75604 267-599): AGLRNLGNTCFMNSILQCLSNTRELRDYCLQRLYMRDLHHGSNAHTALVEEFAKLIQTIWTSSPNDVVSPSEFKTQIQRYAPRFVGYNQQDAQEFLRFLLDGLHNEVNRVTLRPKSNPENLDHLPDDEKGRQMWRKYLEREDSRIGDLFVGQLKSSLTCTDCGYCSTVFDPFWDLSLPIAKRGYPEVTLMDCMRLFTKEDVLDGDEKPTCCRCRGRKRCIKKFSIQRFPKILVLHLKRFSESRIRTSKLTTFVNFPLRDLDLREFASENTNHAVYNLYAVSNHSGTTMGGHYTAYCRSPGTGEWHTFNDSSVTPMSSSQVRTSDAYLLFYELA
T4 sequence (P09936 whole entry): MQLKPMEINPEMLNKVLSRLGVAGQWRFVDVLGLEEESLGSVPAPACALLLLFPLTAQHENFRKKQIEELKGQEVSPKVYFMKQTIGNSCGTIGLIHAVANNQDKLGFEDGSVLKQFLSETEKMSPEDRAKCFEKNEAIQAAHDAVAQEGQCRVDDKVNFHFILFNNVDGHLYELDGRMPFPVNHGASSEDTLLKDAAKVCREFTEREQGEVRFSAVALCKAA
T1 sequence (Q93009 whole entry): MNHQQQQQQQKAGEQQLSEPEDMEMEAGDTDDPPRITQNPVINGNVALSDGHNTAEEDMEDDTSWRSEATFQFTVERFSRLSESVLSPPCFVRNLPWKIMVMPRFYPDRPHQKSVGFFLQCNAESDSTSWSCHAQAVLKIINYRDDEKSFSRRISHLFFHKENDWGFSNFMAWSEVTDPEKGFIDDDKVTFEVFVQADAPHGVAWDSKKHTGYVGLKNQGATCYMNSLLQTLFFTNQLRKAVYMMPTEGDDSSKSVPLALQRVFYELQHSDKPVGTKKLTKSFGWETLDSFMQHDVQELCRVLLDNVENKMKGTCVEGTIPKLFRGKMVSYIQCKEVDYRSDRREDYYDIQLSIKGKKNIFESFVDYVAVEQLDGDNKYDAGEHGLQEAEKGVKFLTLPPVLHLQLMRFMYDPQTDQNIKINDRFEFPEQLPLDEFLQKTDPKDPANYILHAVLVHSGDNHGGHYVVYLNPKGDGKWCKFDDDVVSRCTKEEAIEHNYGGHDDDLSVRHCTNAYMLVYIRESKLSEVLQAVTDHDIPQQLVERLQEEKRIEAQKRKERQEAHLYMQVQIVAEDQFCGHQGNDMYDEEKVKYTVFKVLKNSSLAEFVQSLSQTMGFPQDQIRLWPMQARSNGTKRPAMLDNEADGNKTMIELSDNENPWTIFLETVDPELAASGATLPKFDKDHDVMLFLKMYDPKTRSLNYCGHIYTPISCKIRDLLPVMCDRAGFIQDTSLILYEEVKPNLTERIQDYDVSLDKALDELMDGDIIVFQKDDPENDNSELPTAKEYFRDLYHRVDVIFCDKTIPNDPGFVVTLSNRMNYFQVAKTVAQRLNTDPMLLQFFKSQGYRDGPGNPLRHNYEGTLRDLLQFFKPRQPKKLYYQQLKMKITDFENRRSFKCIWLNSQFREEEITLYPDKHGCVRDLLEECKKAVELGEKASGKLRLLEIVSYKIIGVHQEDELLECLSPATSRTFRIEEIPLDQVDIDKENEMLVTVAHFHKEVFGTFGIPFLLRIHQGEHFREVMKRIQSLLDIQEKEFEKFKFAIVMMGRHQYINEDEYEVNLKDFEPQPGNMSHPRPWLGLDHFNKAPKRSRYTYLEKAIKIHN
T2 sequence (P40818 777-1109): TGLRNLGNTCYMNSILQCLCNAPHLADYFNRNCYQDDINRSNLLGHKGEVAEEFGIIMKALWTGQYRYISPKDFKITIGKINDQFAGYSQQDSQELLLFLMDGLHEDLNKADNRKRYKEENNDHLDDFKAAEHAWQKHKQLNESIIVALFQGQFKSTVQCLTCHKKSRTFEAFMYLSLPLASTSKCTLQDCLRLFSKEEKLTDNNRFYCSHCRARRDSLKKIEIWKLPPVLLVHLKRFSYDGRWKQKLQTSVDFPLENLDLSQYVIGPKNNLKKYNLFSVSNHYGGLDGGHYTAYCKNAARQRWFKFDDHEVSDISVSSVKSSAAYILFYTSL

In the case of `CC(=O)Nc1ccc(C)c(C(=O)N[C@H](C)c2cccc3ccccc23)c1` [Compound 15, (R)-5-acetamido-2-methyl-N-(1-(naphthalen-1-yl)ethyl)benzamide], the IC50 (USP7) is listed as over 30 µM, the EC50 [1] is listed as 13.1 µM and the IC50 (USP8) is listed as over 30 µM. For the same molecule, the IC50 (USP4) was over 30 µM, the IC50 (UCHL1) was over 30 µM and the IC50 (USP30) was over 30 µM. It also gave a remaining activity at 0.02 µM (PLpro from SARS-CoV-2; 0.5 h, inhibitor 0.02 uM) of 115%, a remaining activity at 0.06 µM (PLpro from SARS-CoV-2; 0.5 h, inhibitor 0.06 uM) of 104% and a remaining activity at 0.2 µM (PLpro from SARS-CoV-2; 0.5 h, inhibitor 0.20 uM) of 110%. It also gave a remaining activity at 2.01 µM (PLpro from SARS-CoV-2; 0.5 h, inhibitor 2.01 uM) of 61.8%, a remaining activity at 6.34 µM (PLpro from SARS-CoV-2; 0.5 h, inhibitor 6.34 uM) of 56.9% and a remaining activity at 20 µM (PLpro from SARS-CoV-2; 0.5 h, inhibitor 20.00 uM) of 26.7%. It also gave an IC50 (PLpro from SARS-CoV-2; after 30-min incubation, purified PLpro, Z-RLRGG-AMC substrate) of 6.2 µM, a Hill slope (SARS-CoV-2 PLpro [2]) of 0.969 and an IC50 (SARS-CoV-2 PLpro [2]) of over 30 µM. For the same molecule, the IC50 (USP2) was over 30 µM, the inhibition ([3]; [inhibitor] 8.33 uM, 8.33 µM) was 3.31% and the inhibition ([3]; [inhibitor] 16.67 uM, 16.67 µM) was 6.9%. The “cytotoxicity, %cell viability” value (Vero E6 cells; 2.08 µM) was 75.89%, the “cytotoxicity, %cell viability” value (Vero E6 cells; 8.33 µM) was 83.23% and the “cytotoxicity, %cell viability” value (Vero E6 cells; 16.67 µM) was 80.07%. The “cytotoxicity, %cell viability” value (Vero E6 cells; 33.33 µM) was 59.25%, the inhibition at 8.33 µM ([4]; Severe acute respiratory syndrome coronavirus 2, Vero C1008, read-out: cytopathic effect, % cell viability, [inhibitor] 8.33 uM) was 5.51% and the inhibition at 16.67 µM ([4]; Severe acute respiratory syndrome coronavirus 2, Vero C1008, read-out: cytopathic effect, % cell viability, [inhibitor] 16.67 uM) was 8.63%. The IC50 (SARS-CoV PLpro) was 2.6 µM, the IC50 (USP15) was over 30 µM and the viability at 48 h, 2.08 µM (in vitro) was 85.5%. It also gave a viability at 48 h, 8.33 µM (in vitro) of 85.8%, a viability at 48 h, 16.67 µM (in vitro) of 81.3% and a viability at 48 h, 33.33 µM (in vitro) of 64.9%. The Hill slope (SARS-CoV-2 PLpro [5]) was 0.376 and the IC50 (SARS-CoV-2 PLpro [5]) was over 30 µM.
